Experimental data as given in patent publication US10590413B2, “Chiral control” (WAVE LIFE SCIENCES LTD., priority 2012, dated 2020).
Like-named read-outs stand apart in the source and are kept apart here. Strand notation (5' to 3'): a small letter for the sugar, then the base; units joined by * are phosphorothioate-linked, units joined directly phosphodiester-linked; [ ] holds rarer units or linkages, { } end groups; capitals alone tell only the bases. [Rp] = phosphorothioate linkage, Rp; [Sp] = phosphorothioate linkage, Sp; e = 2'-O-(2-methoxyethyl) (MOE); [5mC] = 5-methylcytosine; d = 2'-deoxy (DNA)

Key:
[1] = test system: Murine IL-6 secretion; conditions: cited from earlier work
[2] = test system: NK LU; conditions: PBMC, phosphorothioate ODN, cited from earlier work
[3] = test system: TNF-α and IL-12 expression; conditions: cell line 3774, no activator, inhibitor at head concentration: Bafilomycin 250 nM, Chloroquine 2.5 μg/ml, Monensin 10 μM, cited from earlier work; for TNF-α, activator: Medium (inhibitor alone): NAC 50 mM, TPCK 50 μM, Gliotoxin 0.1 μg/ml, Bisgliotoxin 0.1 μg/ml, medium alone 37; for IL-12, activator: Medium (inhibitor alone): medium alone 147
[4] = test system: complementary RNA; test: Thermal denaturation experiment (Tm) of DNA strand with complementary RNA (Example 49); format: binding; conditions: duplex with complementary RNA, equimolar 0.5 μM in 1×PBS; first derivative of 254 nm absorbance curve
Protocol: Each DNA strand was mixed with complementary RNA in equimolar concentration of 0.5 μM in 1×PBS. Total 2.5 mL solution was prepared for each duplex and the mixture was heated at 90° C. for 2 min and was allowed to cool down over the course of several hours. The mixtures were then stored at 4° C. for 2 hrs. Absorbance at 254 nm was recorded at an interval of 0.5 min starting the temperature gradient from 15° C. to 90° C. with rise of 0.5° C./minute, using a Perkin Elmer UV-spectrophotometer equipped with a Peltier unit. The 254 nm absorbance was plotted against the temperature and the Tm values were calculated from the respective first derivative of each curve.

[5] = test system: Mouse B Cells; conditions: mean and std. dev. of at least 3 experiments, compared to wells with no added ODN, cited from earlier work
[6] = test system: Apolipoprotein B (Apo B) (NM_000384); test: Apo B gene expression in Hep3B cells after Lipofectamine 2000 transfection, real-time PCR SYBR green (Example 50); format: cell-based, Homo Sapiens; conditions: for IC50: Apo B mRNA, Hep3B cells; for activity compared to Mipomersen (120) / potency compared to the corresponding stereorandom oligonucleotide mixture (Oligonucleotide 118): from Table E-19 IC50, Hep3B
Protocol: After checking OD all oligonucleotide candidate molecules were diluted to a starting concentration of 20 μM. Multidose forward transfection experiment was setup in 96-well plates using Hep3B cells (ATCC®, Cat. HB-8064™) using Lipofectamine 2000 (Life Technologies, Cat. 11668-019) transfection reagent.
2×10^4 Hep3B cells per well were seeded and incubated for 24 hours at 37° C. in a CO2 incubator in 100 μl of antibiotic free MEM medium (Life Technologies, Cat. 11095098) containing 10% FBS and 1% Glutamax I (Life Technologies, Cat. 35050061). Twelve dilutions were setup in nuclease free water (Table E-16).
For each well, 0.5 μL of Lipofectamine 2000 were mixed with 9.5 μL of Opti MEM I reduced serum medium (Life Technologies, Cat. 31985062) and incubated for 5 minutes. Following incubation, 10 μL of each of the candidates at the reported concentrations was mixed with the diluted Lipofectamine 2000 by gentle pipetting. The mixture was then incubated for 20 minutes at room temperature to allow for complex formation. During this time the cell growth medium was replaced with 80 μL of fresh antibiotic free MEM as previously described. 20 μL of lipid-oligo complex was gently mixed into each well bringing the total volume to 100 μL. The cells were then incubated for 24 hours at 37° C. in a CO2 incubator.
After 24 hour incubation the cell growth medium was removed and RNA was extracted using a Dynabeads mRNA Direct kit (Life Technologies, Cat. 61012) per the instructions provided in the kit manual without modifications. This magnetic Oligo (dT)^25 bead system allows for cost-effective and robust high-throughput poly (A) RNA extraction circumventing DNAse treatment. RNA was eluted in nuclease-free water and stored at −80° C.
10 μL of RNA was used in a 20 μL cDNA synthesis reaction using a High Capacity cDNA Reverse Transcription Kit (Life Technologies, Cat. 4374967) using the kit protocol with RNAse Inhibitor. The reverse transcription was performed in a 96-well format on a C1000 Touch thermal cycler (Biorad, Cat. 185-1196EDU).
Gene expression was measured by quantitative PCR using a LightCycler® 480 SYBR Green I Master (Roche, Cat. 04707516001) on LightCycler 480 Real-Time PCR instrument. Primers for the Homo Sapiens sequences of the target Apolipoprotein B (Apo B) (NM_000384) and endogenous control Glyceralydhyde-3-phosphate dehydrogenase (GAPDH) (NM_002046) were designed and ordered from IDT (Table E-17).
Measurement of the target and endogenous control was performed in separate wells using material from the same cDNA template. SYBR green assay PCR conditions were setup as described in the SYBR Green I Master protocol (Table E-18).
The data is a result of 3 biological replicates. All samples were compared to Naïve untransfected control. The following results were observed when evaluating gene expression by real-time PCR using SYBR green (Table E-19, FIG. 5).

[7] = T cell depleted spleen cells from DBA/2 mice, phosphodiester O-ODN 20 μM, 24 hr, mean ± SD of triplicates
[8] = expt. 1 (one donor), US 6,214,806 Table 5
[9] = expt. 1, cells alone 0.00, US 6,239,116 Table 11
[10] = 24 hours after transfection, read-out: IC50 (nM) (rounded up to single digit)
[11] = Complete IC50 data evaluated by SYBR green, 24 hours, 3 biological replicates, read-out: IC50

Compound | IL-6 [1, 7] [pg/mL] | IL-6 ([1]; murine IL-6 secretion) [pg/mL] | Tm (° C.) ± 0.5 [4] [°C] | IC50 [6, 10] [nM] | IC50 [6, 11] [nM] | other results
5b (DNA ATGGAAGGTCCAACGTTCTC; chemistry not given here) [Oligonucleotide 5b] | 1124.5 ± 126.2 | 1124.5 ± 126.2 |  |  |  | 
5c (DNA ATCGACTCTCGAGCGTTCTC; chemistry not fully specified) [Oligonucleotide 5c] | 1783.0 ± 189.5 | 1783.0 ± 189.5 |  |  |  | 
5d (DNA ATGGAAGGTCCAGTGTTCTC; chemistry not given here) [Oligonucleotide 5d] | ≤10 | ≤10 |  |  |  | 
5e (DNA ATCGACTCTCGAGCCTTCTC; Z modified cytosine, further chemistry not given here) [Oligonucleotide 5e] | 851.1 ± 114.4 | 851.1 ± 114.4 |  |  |  | 
5f (DNA ATCGACTCTCGAGCGTTCTC; Z-modified nucleotides, chemistry not fully specified) [Oligonucleotide 5f] | ≤10 | ≤10 |  |  |  | 
1966 (DNA dT*dC*dG*dT*dC*dG*dC*dT*dG*dT*dC*dT*dC*dC*dG*dC*dT*dT*dC*dT*dT) [Oligonucleotide 1966] |  |  |  |  |  | NK LU, expt. 1 [2, 8]: 2.62 LU; NK LU, expt. 1 [2, 9]: 2.62 LU
1990 (DNA dT*dC*dC*dA*dT*dG*dC*dG*dT*dG*dC*dG*dT*dG*dC*dG*dT*dT*dT*dT) [Oligonucleotide 1990] |  |  |  |  |  | NK LU, expt. 1 [2, 8]: 2.10 LU; NK LU, expt. 1 [2, 9]: 2.10 LU
1991 (DNA dT*dC*dC*dA*dT*dG*dC*dG*dT*dT*dG*dC*dG*dT*dT*dG*dC*dG*dT*dT) [Oligonucleotide 1991] |  |  |  |  |  | NK LU, expt. 1 [2, 8]: 0.89 LU; NK LU, expt. 1 [2, 9]: 0.89 LU
19792 (DNA TCCATGTCGTTCCTGTCGTT; phosphorothioate, Z modified cytosine, chemistry not fully specified) [Oligonucleotide 19792] |  |  |  |  |  | NK LU, expt. 1 [2, 8]: 1.32 LU
CCN(CC)CCCC(C)Nc1ccnc2cc(Cl)ccc12 (stereo not drawn) [Chloroquine, chloroquine, reference compound] |  |  |  |  |  | TNF-α, activator: Medium (inhibitor alone) [3]: 27 pg/mL; IL-12, activator: Medium (inhibitor alone) [3]: 20 pg/mL
C[Si](C)(C)C[C@@H](O)[C@@H]1CCCN1 [Compound 5a, (S)-2-(Trimethylsilyl)-1-((S)-1-pyrrolidin-2-yl)ethanol] | 1096.4 ± 372.0 | 1096.4 ± 372.0 |  |  |  | 
CN1C(=O)[C@]23CC4=CC=C[C@H](O)[C@H]4N2C(=O)[C@@]1(CO)SS3 [Gliotoxin] |  |  |  |  |  | TNF-α, activator: Medium (inhibitor alone) [3]: 17 pg/mL
CC[C@@]1([C@@H]2O[C@@H]([C@H]3O[C@@](O)(CO)[C@H](C)C[C@@H]3C)C[C@@H]2C)CC[C@H]([C@]2(C)CC[C@]3(C[C@H](O)[C@@H](C)[C@@H]([C@@H](C)[C@@H](OC)[C@H](C)C(=O)O)O3)O2)O1 [Monensin] |  |  |  |  |  | TNF-α, activator: Medium (inhibitor alone) [3]: 22 pg/mL; IL-12, activator: Medium (inhibitor alone) [3]: 73 pg/mL
CC(=O)N[C@@H](CS)C(=O)O [NAC] |  |  |  |  |  | TNF-α, activator: Medium (inhibitor alone) [3]: 10 pg/mL
(Rp, Rp, Rp, Rp, Rp, Sp, Sp, Sp, Sp, Sp, Sp, Sp, Sp, Sp, Rp, Rp, Rp, Rp, Rp)-d[GsCsCsTsCsAsGsTsCsTsGsCsTsTsCsGsCsAsCsC] (DNA GCCTCAGTCTGCTTCGCACC; DNA, linkages [Rp]5 [Sp]9 [Rp]5 (s phosphorothioate, o phosphodiester), methylation of C not given here) [Oligonucleotide 103] |  |  | 63.4 | 6 | 5.73 | Stimulation Index, 3H Uridine ([5]; US 6,239,116 Table 1): 6.1 ± 1.4; Stimulation Index, IgM Production ([5]; US 6,239,116 Table 1): 19.2 ± 5.2; Stimulation Index, 3H Uridine [5]: 6.1 ± 1.4
(Sp, Rp, Rp, Sp, Rp, Rp, Sp, Rp, Rp, Sp, Rp, Rp, Sp, Rp, Rp, Sp, Rp, Rp, Sp)-d[GsCsCsTsCsAsGsTsCsTsGsCsTsTsCsGsCsAsCsC] (DNA GCCTCAGTCTGCTTCGCACC; DNA, linkages [Sp][Rp][Rp][Sp][Rp][Rp][Sp][Rp][Rp][Sp][Rp][Rp][Sp][Rp][Rp][Sp][Rp][Rp][Sp] (s phosphorothioate, o phosphodiester), methylation of C not given here) [Oligonucleotide 115] |  |  | 65.2 | 3 | 2.69 | activity compared to Mipomersen (120) [6]: more active; potency compared to the corresponding stereorandom oligonucleotide mixture (Oligonucleotide 118) [6]: more potent
(Sp, Rp, Sp, Rp, Sp, Rp, Sp, Rp, Sp, Rp, Sp, Rp, Sp, Rp, Sp, Rp, Sp, Rp, Sp)-d[GsCsCsTsCsAsGsTsCsTsGsCsTsTsCsGsCsAsCsC] (DNA GCCTCAGTCTGCTTCGCACC; DNA, linkages [Sp][Rp][Sp][Rp][Sp][Rp][Sp][Rp][Sp][Rp][Sp][Rp][Sp][Rp][Sp][Rp][Sp][Rp][Sp] (s phosphorothioate, o phosphodiester), methylation of C not given here) [Oligonucleotide 108] |  |  | 64.8 | 3 | 3.19 | 
(Sp, Sp, Sp, Rp, Rp, Rp, Rp, Rp, Rp, Rp, Rp, Rp, Rp, Rp, Rp, Rp, Sp, S, Sp)d[GsCsCsTsCsAsGsTsCsTsGsCsTsTsCsGsCsAsCsC] (DNA GCCTCAGTCTGCTTCGCACC; DNA, linkages [Sp]3 [Rp]13 [Sp]3 (s phosphorothioate, o phosphodiester), methylation of C not given here) [Oligonucleotide 109] |  |  | 65.8 | 2 | 1.72 | activity compared to Mipomersen (120) [6]: more active; potency compared to the corresponding stereorandom oligonucleotide mixture (Oligonucleotide 118) [6]: more potent
(Sp, Sp, Sp, Sp, Sp, Rp, Rp, Rp, Rp, Rp, Rp, Rp, Rp, Rp, Sp, Sp, Sp, Sp, Sp)-d[GsCsCsTsCsAsGsTsCsTsGsCsTsTsCsGsCsAsCsC] (DNA GCCTCAGTCTGCTTCGCACC; DNA, linkages [Sp]5 [Rp]9 [Sp]5 (s phosphorothioate, o phosphodiester), methylation of C not given here) [Oligonucleotide 104] |  |  | 63.5 | 4 | 4.29 | activity compared to Mipomersen (120) [6]: more active
Mipomersen (DNA eG*e[5mC]*e[5mC]*eT*e[5mC]*dA*dG*dT*d[5mC]*dT*dG*d[5mC]*dT*dT*d[5mC]*eG*e[5mC]*eA*e[5mC]*e[5mC]) [Oligonucleotide 120, "Mipomersen, which is a stereorandom oligonucleotide mixture (Oligonucleotides 104, 105 ... compared to 120)", reference compound] |  |  | 65.3 | 4 | 4.39 | 
